Laboratory results reported in patent US20240050426A1, “TREATING VIRAL INFECTION WITH NMD INHIBITORS” (The Cleveland Clinic Foundation, priority 2021, published 2024).

Experiments:
[1] = concentrations below those used in this study (25 μM); cited from earlier work
[2] = system: KSHV; test: KSHV reactivation: qRT-PCR of KSHV lytic transcripts after NMDI-1 treatment; type: cell-based; details: 25 μM NMDI-1, 24 to 120 h
Protocol: (§1) FIG. 4. Small-molecule NMD inhibitor NMDI-1 is a potent inducer of EBV and KSHV reactivation. (A-C) qRT-PCR analysis of EBV BZLF1, BRLF1, BMRF1, BLLF1b, and/or BcLF1 transcripts in EBV^+ AKBM (A), AGS-EBV (B), or LCL (C) cells treated with 25 μM NMDI-1 for 12 to 120 h, presented as fold expression relative to Mock-treated samples. (D-G) qRT-PCR analysis of Orf26, Orf50, Orf57, or Orf74 transcripts in KSHV^+ iSLK.rKSHV219 (D), HEK293T.rKSHV219 (E), BC3 (F), and BCBL1 (G) cells treated with 25 μM NMDI-1 for 24 to 120 h, presented as fold expression relative to Mock-treated samples. Data are representative of at least two (A, C) or three (B, D, E, F, G) independent experiments and presented as mean±SD of three biological replicates; ns, p>0.05, * p≤0.05, ** p≤0.01, *** p≤0.001.
(§2) Total RNA was extracted from cells using the E.Z.N.A. HP Total RNA Isolation Kit (OMEGA Bio-Tek) according to the manufacturer's instructions. Reverse transcription and qRT—PCR were performed using equal amounts (50-500 ng) of the purified RNA and the SuperScript III Platinum One-Step qRT-PCR kit with ROX (Invitrogen) on a 7500 Fast Real-Time PCR Machine (Applied Biosystems). Premixed master mixes of TaqMan primers and probes for the detection of human transcripts were purchased from Applied Biosystems (18S) or IDT (GAPDH, UPF1, UPF2, UPF3a, UPF3b, SMG1, SMG5, SMG6, SMG7, STAU1, STAU2, GADD45B, PDRG1, RPL32, HPRT1, MAP3K14). […] Abundance of target genes was calculated by normalizing for cellular 18S or GAPDH using the Comparative CT (ΔΔCt) method. […]

[3] = system: EBV transcripts in AGS-EBV cells; test: qRT-PCR of EBV transcript abundance in TPA-treated AGS-EBV cells with or without NMDI-1; type: cell-based; details: 5 ng/mL TPA, 25 μM NMDI-1, 24 h
Excerpt: FIG. 3. NMD controls the abundance of the polycistronic EBV transactivator transcripts and Rta protein expression. (A) Schematic of the EBV transactivator locus and the three transcripts expressed from this locus. Dashed lines mark spliced introns; CDS, coding sequence; Rp, EBV BRLF1 promoter; Zp, EBV BZLF1 promoter; pA, 3′-polyadenylation site; green bar, location of the Northern blotting probe used in F and I. (B) qRT-PCR analysis of BRLF1 transcripts in HEK293T cells transfected with 0, 20, 40, or 60 nM UPF1-targeting siRNA for 24 h, followed by transfection of a plasmid encoding the complete EBV transactivator locus (left panel, orange) or the BRLF1 coding sequence (CDS) only (right panel, blue), together with pcDNA3-nlsGFP (internal control) for 48 h. Data was normalized to GFP transcript levels to control for differences in transfection efficiency and presented as fold abundance relative to cells without si.UPF1 (−). (C) qRT-PCR analysis of BZLF1 transcripts in HEK293T cells transfected with increasing amounts of si.UPF1 for 24 has in (B), followed by transfection for 48 h with a plasmid encoding the EBV BZLF1 locus (left panel, orange) or the BZLF1 CDS (right panel, blue), together with pcDNA3-nlsGFP (internal control). […] See 10E Fig for quantification of effects. […] See S6F Fig for quantification of effects. […] See S6G Fig for quantification of effects. […]

[4] = system: BJAB cells; test: Cytotoxicity assessment, flow cytometry with 7-AAD and FITC-Annexin V; type: cell-based; details: virus-negative BJAB cells, NMDI-1 between 5 and 50 μM, 48 h
Protocol: (§3) FIG. 11. Cytotoxicity assessment of NMDI-1 treatment. (A, B) Flow cytometry analysis of virus-negative Burkitt lymphoma BJAB (A) or AGS (B) cells treated with 5 to 100 μM NMDI-1 or DMSO (‘0 μM’ NMDI-1) for 48 h and stained with 7-AAD and FITC-Annexin V. Data are presented as mean percentage of live (orange, Annexin V^−/7-AAD^−), apoptotic (blue, […]), and necrotic (red, Annexin V^+/7-AAD^+) cells for three biological replicates. 1 μM staurosporine treatment served as positive control for apoptosis/necrosis induction.
(§4) AGS-EBV and HEK293T.rKSHV219 cells were seeded into 12-well plates and transfected with UPF1-specific or non-targeting control siRNAs for 24 to 120 h as indicated. As a positive control for reactivation, cells were treated with 2.5 mM NaB for 24 h. For microscopy, cells were incubated with Hoechst nucleic acid stain (1:2000, Invitrogen) in PBS for 5 min at RT, after which DAPI, as well as GFP or RFP were imaged using a fluorescence microscope (Omano). For flow cytometry analysis of GFP and RFP expression, cells were fixed in 4% paraformaldehyde in PBS and analyzed on an LSRFortessa (BD Biosciences). […] Data were analyzed using the Flowjo software (BD Biosciences).

[5] = system: EBV; test: EBV reactivation: qRT-PCR of EBV lytic gene expression after NMDI-1 treatment; type: cell-based; details: 25 μM NMDI-1, qRT-PCR, relative to Mock
Protocol: as §1, §2

[6] = system: AGS cells; test: Cytotoxicity assessment, flow cytometry with 7-AAD and FITC-Annexin V; type: cell-based, human; details: NMDI-1 between 5 and 50 μM, 48 h
Protocol: as §3, §4

## Cc1c2ccnc(Cl)c2c(C)c2c1[nH]c1ncccc12 [NMDI-1]
[1]
  toxicity in in vivo studies: without apparent toxicity
[2]; KSHV+ BC3 PEL cells
  KSHV lytic transcripts Orf50, Orf26, Orf57 and/or Orf74: induced potent expression of the KSHV lytic transcripts
[2]; KSHV+ BCBL1 PEL cells
  KSHV lytic transcripts Orf50, Orf26, Orf57 and/or Orf74: induced potent expression of the KSHV lytic transcripts
[2]; KSHV+ HEK293T.rKSHV219 cells
  KSHV lytic transcripts Orf50, Orf26, Orf57 and/or Orf74: induced potent expression of the KSHV lytic transcripts
[2]; KSHV+ iSLK.rKSHV219 cells
  KSHV lytic transcripts Orf50, Orf26, Orf57 and/or Orf74: induced potent expression of the KSHV lytic transcripts
[3]
  BRLF1 transcript abundance compared to the mock-treated control: significant increase in BRLF1 transcript abundance
  levels of other EBV transcripts (BNRF1, BcLF1, BLLF1): not significantly affected
[4]
  cell viability: did not or only minimally affect cell viability
[5]; AGS-EBV cells
  EBV lytic gene expression: potent induction of lytic gene expression
[5]; EBV+ AKBM cells
  EBV lytic gene expression (BZLF1, BMRF1, BLLF1, BcLF1): striking induction of EBV lytic gene expression
[5]; EBV-transformed LCL cells from healthy-donor primary B cells
  EBV lytic gene expression: potent induction of lytic gene expression
[6]
  cell viability: did not or only minimally affect cell viability
